Data taken from ChEMBL document CHEMBL1130765, “5-Aminomethylquinoxaline-2,3-diones, Part III: Arylamide derivatives as highly potent and selective glycine-site NMDA receptor antagonists” (Bioorg Med Chem Lett, 1998).

Experiments:
[1] = target: Glutamate receptor ionotropic, NMDA 1 (Rattus norvegicus, UniProt P35439); assay: In vitro binding assay for the displacement of [3H]MDL-105519 from the glycine-site of NMDA receptors
[2] = target: Glutamate receptor ionotropic, AMPA (Rattus norvegicus, UniProt P19490+P19491+P19492+P19493); assay: In vitro binding assay for the displacement of [3H]AMPA from AMPA receptor; format: protein-complex assay

## O=C(NCc1cc(Br)cc2[nH]c(=O)c(=O)[nH]c12)c1ccco1
[1]
  IC50: 40 nM
[2]
  IC50: 6800 nM

## O=C(Cc1ccccc1)NCc1cc([N+](=O)[O-])cc2[nH]c(=O)c(=O)[nH]c12
[1]
  IC50: 40 nM
[2]
  IC50: 28800 nM

## O=C(NCc1cc(Br)cc2nc(O)c(O)nc12)c1ccccc1
[1]
  IC50: 60 nM
[2]
  IC50: 1700 nM

## COc1cc(C(=O)NCc2cc([N+](=O)[O-])cc3[nH]c(=O)c(=O)[nH]c23)cc(OC)c1OC
[1]
  IC50: 200 nM
[2]
  IC50: 64 nM

## COc1cccc(CC(=O)NCc2cc(Br)cc3[nH]c(=O)c(=O)[nH]c23)c1
[1]
  IC50: 30 nM
[2]
  IC50: > 10000 nM

## COc1ccc(NC(=O)NCc2cc([N+](=O)[O-])cc3[nH]c(=O)c(=O)[nH]c23)cc1
[1]
  IC50: 30 nM
[2]
  IC50: 300 nM

## O=C(Cc1cccc(Cl)c1)NCc1cc(Br)cc2nc(O)c(O)nc12
[1]
  IC50: 40 nM
[2]
  IC50: > 10000 nM

## O=C(NCc1cc([N+](=O)[O-])cc2nc(O)c(O)nc12)Nc1ccccc1
[1]
  IC50: 900 nM
[2]
  IC50: 4340 nM

## O=C(NCc1cc([N+](=O)[O-])cc2[nH]c(=O)c(=O)[nH]c12)c1cc(O)c(O)c(O)c1
[1]
  IC50: 150 nM
[2]
  IC50: 130 nM

## O=C(NCc1cc(Br)cc2nc(O)c(O)nc12)c1cc(C(F)(F)F)cc(C(F)(F)F)c1
[1]
  IC50: > 10000 nM
[2]
  IC50: > 10000 nM

## O=C(NCc1cc(Br)cc2[nH]c(=O)c(=O)[nH]c12)C(O)c1ccccc1 (stereo unspecified)
[1]
  IC50: 50 nM
[2]
  IC50: ~10000 nM

## NS(=O)(=O)c1ccc(C(=O)NCc2cc([N+](=O)[O-])cc3[nH]c(=O)c(=O)[nH]c23)cc1
[1]
  IC50: 630 nM
[2]
  IC50: 200 nM

## O=C(NCc1cc(Br)cc2[nH]c(=O)c(=O)[nH]c12)C(=O)c1ccccc1
[1]
  IC50: 4000 nM
[2]
  IC50: > 10000 nM

## O=C(Cc1cccc([N+](=O)[O-])c1)NCc1cc(Br)cc2[nH]c(=O)c(=O)[nH]c12
[1]
  IC50: 40 nM
[2]
  IC50: > 10000 nM

## O=C(Cc1ccccc1)NCc1cc(Cl)cc2nc(O)c(O)nc12
[1]
  IC50: 10 nM
[2]
  IC50: ~10000 nM

## O=C(Cc1ccccc1)NCc1cc(Br)cc2[nH]c(=O)c(=O)[nH]c12
[1]
  IC50: 10 nM
[2]
  IC50: > 10000 nM

## CC(=O)OC(C(=O)NCc1cc(Br)cc2nc(O)c(O)nc12)c1ccccc1 (stereo unspecified)
[1]
  IC50: 40 nM
[2]
  IC50: > 10000 nM

## O=C(NCc1cc([N+](=O)[O-])cc2[nH]c(=O)c(=O)[nH]c12)c1ccccc1O
[1]
  IC50: 40 nM
[2]
  IC50: 150 nM

## O=C(NCc1cc(Br)cc2[nH]c(=O)c(=O)[nH]c12)Oc1ccccc1
[1]
  IC50: 1500 nM
[2]
  IC50: > 10000 nM

## O=C(Cc1ccc2c(c1)OCO2)NCc1cc(Br)cc2[nH]c(=O)c(=O)[nH]c12
[1]
  IC50: 3900 nM
[2]
  IC50: > 10000 nM

## COc1ccc(CC(=O)NCc2cc(Br)cc3[nH]c(=O)c(=O)[nH]c23)cc1OC
[1]
  IC50: 50 nM
[2]
  IC50: > 10000 nM

## O=C(CCc1ccccc1)NCc1cc(Br)cc2nc(O)c(O)nc12
[1]
  IC50: 860 nM
[2]
  IC50: > 10000 nM

## COc1ccccc1NC(=O)NCc1cc([N+](=O)[O-])cc2nc(O)c(O)nc12
[1]
  IC50: 30 nM
[2]
  IC50: 630 nM

## O=C(NCc1cc(Br)cc2nc(O)c(O)nc12)c1cccs1
[1]
  IC50: 10 nM
[2]
  IC50: 1600 nM

## O=C(Cc1ccc(Cl)cc1)NCc1cc(Br)cc2nc(O)c(O)nc12
[1]
  IC50: 20000 nM
[2]
  IC50: > 10000 nM

## Nc1ccccc1C(=O)NCc1cc([N+](=O)[O-])cc2[nH]c(=O)c(=O)[nH]c12
[1]
  IC50: 170 nM
[2]
  IC50: 300 nM

## O=C(Cc1ccsc1)NCc1cc(Br)cc2nc(O)c(O)nc12
[1]
  IC50: 10 nM
[2]
  IC50: 11300 nM

## O=C(Cc1ccc([N+](=O)[O-])cc1)NCc1cc(Br)cc2nc(O)c(O)nc12
[1]
  IC50: 1200 nM
[2]
  IC50: > 10000 nM

## O=C(Cc1ccccc1Cl)NCc1cc(Br)cc2[nH]c(=O)c(=O)[nH]c12
[1]
  IC50: 7 nM
[2]
  IC50: > 10000 nM

## O=C(Cc1ccccc1[N+](=O)[O-])NCc1cc(Br)cc2nc(O)c(O)nc12
[1]
  IC50: 20 nM
[2]
  IC50: > 10000 nM

## O=C(NCc1cc(Br)cc2nc(O)c(O)nc12)OCc1ccccc1
[1]
  IC50: 110 nM
[2]
  IC50: ~10000 nM

## CC(C(=O)NCc1cc(Br)cc2nc(O)c(O)nc12)c1ccccc1 (stereo unspecified)
[1]
  IC50: 10 nM
[2]
  IC50: ~10000 nM

## Cc1ccsc1C(=O)NCc1cc(Br)cc2nc(O)c(O)nc12
[1]
  IC50: 20 nM
[2]
  IC50: ~10000 nM

## O=C(NCc1cc(Br)cc2[nH]c(=O)c(=O)[nH]c12)c1ccsc1
[1]
  IC50: 10 nM
[2]
  IC50: 2000 nM

## O=C(Cc1ccccc1)NCc1cc(P(=O)(O)O)cc2[nH]c(=O)c(=O)[nH]c12
[1]
  IC50: > 10000 nM
[2]
  IC50: > 10000 nM

## O=C(NCc1cc([N+](=O)[O-])cc2nc(O)c(O)nc12)Nc1ccc(OC(F)(F)F)cc1
[1]
  IC50: 350 nM
[2]
  IC50: 1100 nM

## Cc1ccc(C(=O)NCc2cc(Br)cc3[nH]c(=O)c(=O)[nH]c23)s1
[1]
  IC50: 30 nM
[2]
  IC50: 1700 nM

## O=C(Cc1ccccc1)NCc1cccc2[nH]c(=O)c(=O)[nH]c12
[1]
  IC50: 90 nM
[2]
  IC50: > 10000 nM

## Cn1cccc1C(=O)NCc1cc(Br)cc2[nH]c(=O)c(=O)[nH]c12
[1]
  IC50: 20 nM
[2]
  IC50: > 10000 nM

## O=C(NCc1cc(Br)cc2nc(O)c(O)nc12)c1cccnc1
[1]
  IC50: 280 nM
[2]
  IC50: 4300 nM

## Cc1ccc(C(=O)NCc2cc(Br)cc3nc(O)c(O)nc23)cn1
[1]
  IC50: 110 nM
[2]
  IC50: ~10000 nM

## Cc1ncccc1C(=O)NCc1cc(Br)cc2nc(O)c(O)nc12
[1]
  IC50: 1800 nM
[2]
  IC50: ~10000 nM

## O=C(NCc1cc(Br)cc2nc(O)c(O)nc12)c1ccncc1
[1]
  IC50: 250 nM
[2]
  IC50: ~10000 nM
